{"source": "patent US20260207589A1", "about": "“Combination of Talazoparib and Enzalutamide in the Treatment of Metastatic Castration-Resistant Prostate Cancer” (Pfizer Inc., priority 2022, published 2026)", "key": {"[1]": {"system": "patients with mCRPC with HRR gene alterations", "experiment": "TALAPRO-2 (NCT03395197) Phase 3, Part 2, DDR/HRR-deficient cohort (Cohort 2): efficacy", "assay_type": "in vivo, human", "procedure": "In one embodiment, the increase in survival is measured by any of the following: progression free survival (PFS), radiographic PFS (rPFS), and overall survival (OS). PFS, rPFS and OS are clinically meaningful endpoints for measuring an increase in survival for patients treated with the combination of the present invention. […] OS is the length of time from either the date of diagnosis or the start of treatment for a disease, such as cancer, that patients diagnosed with the disease are still alive. In a clinical trial, measuring the PFS and OS are ways to see how well a new treatment works. For purposes of the clinical trial described here, rPFS refers to the time from the date of randomization to first objective evidence of radiographic progression assessed in soft tissue per Response Evaluation Criteria in Solid Tumors version 1.1 (RECIST 1.1) or in bone (upon subsequent confirmation) per Prostate Cancer Working Group (PCWG3) guidelines by Blinded Independent Central Review (BICR), or death, whichever occurs first. For purposes of the clinical trial described here, OS refers to the time from the date of randomization to death due to any cause.\nThis was an international, Phase 3, randomized, double-blind, two-part study for mCRPC patients, TALAPRO-2 (NCT03395197).\nPart 2 was randomized, double-blind, and placebo-controlled and evaluated the efficacy and safety of talazoparib in combination with enzalutamide compared with placebo in combination with enzalutamide. From February 2019 to January 2022, 399 patients (169 from Cohort 1) were randomized 1:1 to receive either talazoparib or matching placebo in combination with open-label enzalutamide once daily. Randomization was stratified by prior novel hormonal therapy or taxane-based chemotherapy, e.g., abiraterone, orteronel, or docetaxel for castration-sensitive prostate cancer (yes/no) and DDR mutational status, also referred to as, homologous recombination repair gene alteration status (deficient vs. non deficient/unknown). Stratification factors were specified by the investigator, and recorded in the interactive web response system (IWRS) before randomization and used for the stratified analysis of the primary efficacy endpoint. However, as the IWRS grouped non-deficient and unknown status, a secondary stratified analysis based on homologous recombination repair gene alteration status derived from the clinical database was also performed and used to identify the non-deficient subpopulation.\nGenomic screening to identify alterations in DDR genes was optional for patients in Part 1, but it was required for randomization in Part 2. Mutational status was determined by testing for the presence of mutations in defined DDR genes likely to sensitize to PARP inhibition using next generation sequencing (NGS) based gene panel test. Prior to randomization, patients consented to provide solid tumor tissue (de novo or archival) and/or blood-based samples, which were prospectively assessed for homologous recombination repair (HRR) gene alterations (BRCA1, BRCA2, PALB2, ATM, ATR, CHEK2, FANCA, RAD51C, NBN, MLH1, MRE11A, CDK12) using FoundationOne® CDx and/or FoundationOneLiquid® CDx. […] One patient was enrolled based on ctDNA results only. For exploratory analysis, available blood-based samples (not collected in China) were retrospectively tested using FoundationOneLiquid® CDx to determine the status of patients with a prospectively-assessed status of unknown."}, "[2]": {"system": "patients with mCRPC with HRR gene alterations", "conditions": "male, human, in vivo"}, "[3]": {"conditions": "BICR, measurable soft tissue disease"}, "[4]": {"conditions": "DDR-deficient population, overall"}, "[5]": {"conditions": "Non-BRCAm HRRm incl. 4 patients without HRR gene mutations (N = 129 vs 115)"}}}
{"compound": "CNC(=O)c1ccc(N2C(=S)N(c3ccc(C#N)c(C(F)(F)F)c3)C(=O)C2(C)C)cc1F", "note": "[Placebo + Enzalutamide]", "values": [{"measurement": "CR rate", "setting": "[1]; [3]", "result": 18.5, "unit": "%"}, {"measurement": "PD rate", "setting": "[1]; [3]", "result": 20.0, "unit": "%"}, {"measurement": "PR rate", "setting": "[1]; [3]", "result": 21.5, "unit": "%"}, {"measurement": "rPFS events by BICR", "setting": "[1]; BRCA1/2 mutations subgroup", "result": 54, "unit": "events"}, {"measurement": "rPFS, Number of events", "setting": "[1]; BRCAm (N = 71 vs 84)", "result": "54 (64) n (%)"}, {"measurement": "Median PFS2", "setting": "[1]; DDR-deficient population", "result": 28.1, "unit": "months"}, {"measurement": "Median investigator-assessed rPFS", "setting": "[1]; DDR-deficient population", "result": 16.9, "unit": "months"}, {"measurement": "Median time to use of cytotoxic chemotherapy", "setting": "[1]; DDR-deficient population", "result": "NE/NR"}, {"measurement": "PFS2 events", "setting": "[1]; DDR-deficient population", "result": 61, "unit": "events"}, {"measurement": "PSA response rate (decline from baseline PSA by at least 50%, confirmed)", "setting": "[1]; DDR-deficient population", "result": 63.1, "unit": "%"}, {"measurement": "Time to cytotoxic chemotherapy, events", "setting": "[1]; DDR-deficient population", "result": 65, "unit": "events"}, {"measurement": "Median rPFS by BICR", "setting": "[1]; [4]", "result": 13.8, "unit": "months"}, {"measurement": "rPFS events by BICR", "setting": "[1]; [4]", "result": 104, "unit": "events"}, {"measurement": "Median OS", "setting": "[1]; DDR-deficient population, interim", "result": 33.7, "unit": "months"}, {"measurement": "rPFS, Median months (95% CI)", "setting": "[1]; [5]", "result": "16.7 (13.8, 27.7) months"}, {"measurement": "rPFS, Number of events", "setting": "[1]; [5]", "result": "50 (43) n (%)"}, {"measurement": "rPFS by BICR, Median", "setting": "[1]; gene subgroup: ATM Cluster", "result": 27.7, "unit": "mo"}, {"measurement": "rPFS by BICR, Median", "setting": "[1]; gene subgroup: All HRR-deficient", "result": 13.8, "unit": "mo"}, {"measurement": "rPFS by BICR, Median", "setting": "[1]; gene subgroup: BRCA Cluster", "result": 11.0, "unit": "mo"}, {"measurement": "rPFS by BICR, Median", "setting": "[1]; gene subgroup: CDK12 Cluster", "result": 13.8, "unit": "mo"}, {"measurement": "rPFS by BICR, Median", "setting": "[1]; gene subgroup: Only ATM", "result": 27.7, "unit": "mo"}, {"measurement": "rPFS by BICR, Median", "setting": "[1]; gene subgroup: Only BRCA1", "result": 11.7, "unit": "mo"}, {"measurement": "rPFS by BICR, Median", "setting": "[1]; gene subgroup: Only BRCA2", "result": 11.0, "unit": "mo"}, {"measurement": "rPFS by BICR, Median", "setting": "[1]; gene subgroup: Only CDK12", "result": 13.8, "unit": "mo"}, {"measurement": "rPFS by BICR, Median", "setting": "[1]; gene subgroup: Only PALB2", "result": 8.6, "unit": "mo"}, {"measurement": "rPFS by BICR, Median", "setting": "[1]; gene subgroup: PALB2 Cluster", "result": 8.3, "unit": "mo"}, {"measurement": "patients who had died", "setting": "[1]; interim OS analysis, 24% maturity overall", "result": 26.6, "unit": "%"}, {"measurement": "OS events (deaths)", "setting": "[1]; interim OS analysis, 96 deaths", "result": 53, "unit": "events"}, {"measurement": "Median OS (printed: Median rPFS)", "setting": "[1]; non-BRCA1/2 mutations subgroup", "result": 33.7, "unit": "months"}, {"measurement": "rPFS events by BICR", "setting": "[1]; non-BRCA1/2 mutations subgroup", "result": 50, "unit": "events"}, {"measurement": "Median rPFS by BICR", "setting": "[1]; non-BRCA1/2 mutations subgroup, N=240", "result": 16.7, "unit": "months"}, {"measurement": "Objective response rate by BICR (RECIST 1.1)", "setting": "[1]; patients with measurable soft tissue disease at baseline", "result": 40.0, "unit": "%"}, {"measurement": "Patients with Grade 3 or higher TRAEs", "setting": "[2]", "result": "28 (14) n (%)"}, {"measurement": "Patients with any TRAEs", "setting": "[2]", "result": "144 (72.4) n (%)"}]}
